Data from paper PMC5489263 (Science Advances, 2017).
Ends that are not written are not given here.

Tests used:
[1] = target: C. glabrata mating receptor (Cg.Ste2) (Candida glabrata, UniProt Q6FLY8); assay: cell-based
[2] = target: Le.Ste2 mating receptor (Lodderomyces elongisporus, UniProt A5E1D9); assay: cell-based
Sequence of Le.Ste2 mating receptor (A5E1D9 entry or part of it): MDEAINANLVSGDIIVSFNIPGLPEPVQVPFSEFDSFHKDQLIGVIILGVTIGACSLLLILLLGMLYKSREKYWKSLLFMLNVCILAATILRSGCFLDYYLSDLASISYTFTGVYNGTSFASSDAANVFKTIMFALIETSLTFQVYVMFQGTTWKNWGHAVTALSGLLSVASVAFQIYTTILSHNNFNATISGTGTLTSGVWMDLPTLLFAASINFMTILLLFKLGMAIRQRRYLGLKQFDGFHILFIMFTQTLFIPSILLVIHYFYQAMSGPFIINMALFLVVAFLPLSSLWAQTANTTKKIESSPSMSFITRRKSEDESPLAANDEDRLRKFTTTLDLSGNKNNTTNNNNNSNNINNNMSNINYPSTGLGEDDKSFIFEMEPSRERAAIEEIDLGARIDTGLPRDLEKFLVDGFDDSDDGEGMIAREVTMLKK

Sequence of C. glabrata mating receptor (Cg.Ste2) (Q6FLY8 entry or part of it): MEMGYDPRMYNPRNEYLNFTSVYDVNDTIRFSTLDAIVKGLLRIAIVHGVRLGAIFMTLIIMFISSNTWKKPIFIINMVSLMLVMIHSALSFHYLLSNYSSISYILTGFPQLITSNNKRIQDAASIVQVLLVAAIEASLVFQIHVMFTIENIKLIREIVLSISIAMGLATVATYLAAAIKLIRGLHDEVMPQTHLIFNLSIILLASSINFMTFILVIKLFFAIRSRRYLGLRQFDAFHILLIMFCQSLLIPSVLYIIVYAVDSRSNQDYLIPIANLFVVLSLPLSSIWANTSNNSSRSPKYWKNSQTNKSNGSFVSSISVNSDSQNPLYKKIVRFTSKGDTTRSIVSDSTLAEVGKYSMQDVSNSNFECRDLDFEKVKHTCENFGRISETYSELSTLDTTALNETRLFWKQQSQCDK

Sequence: WHWVRLRKGQGLF [Cg – Candida glabrata]
- EC50 [1]: 14 µM

Sequence: WMWTRYGRFSPV [Le – Lodderomyces elongisporus]
- EC50 [2]: 0.054 µM
